Laboratory results taken from US20040237130A1, “Embryogenic culture initiation of douglas-fir by maltose” (Weyerhaeuser Company, priority 2003, published 2004).

Legend:
[1] = test system: Douglas-fir embryonal suspensor masses; assay: Establishment of embryonal suspensor masses on BM2 maintenance medium; assay type: cell-based; details: for Initiation (#) (Establishment Frequencies) / Initiation (%) (Establishment Frequencies) / Initiation (%) (Establishment Frequencies); proportion of established ESMs: sugar 30000 mg/L in solid BM2 maintenance medium, 12-15 subcultures
Protocol: Maintenance: After 5-6 weeks, ESMs from Group A were subcultured onto a solid BM2 maintenance medium (Table 2), and ESMs from Group B were subcultured unto a BM2 maintenance medium in which the maltose was replaced with sucrose (30000 mg/L). The maintenance medium differs from the initiation medium in that the growth hormones (both auxins and cytokinins) are reduced by at least a full order of magnitude. Osmolality of this medium was typically raised from that of the initiation medium to about 180 mM/kg or higher (typically within the range of about 180-400 mM/kg) by increasing the concentration of myo-inositol to 0.5% w/v. The temperature and photoperiod were again 22°-25 C. with 24 hours in the dark. ESMs were subcultured every 12 days onto fresh maintenance medium. The number of ESMs established from explants for each group after a total of 12-15 subcultures on maintenance is shown in Table 4. An ESM was considered to be established if it weighed between 250 mg and 500 mg (fresh weight) or if measured 1-2 cms in diameter, after several subcultures. The proportion of established ESMs obtained was 18% for explants in Group A and 11% for explants in Group B. The frequencies of established ESMs improved for each of the 4 crosses tested when explants were cultured on maintenance medium containing maltose (Group A). Overall, the number of established ESMs increased by 51% for explants cultured on maintenance medium containing maltose, compared to explants cultured on maintenance medium containing sucrose.

Douglas-fir explants = assay: Initiation of embryonal suspensor masses (ESM) from Douglas-fir explants on BM1 initiation medium; assay type: cell-based; details: for Initiation (#) / Initiation (%): sugar 15000 mg/L in semi-solid BM1 initiation medium, 5-6 weeks, dark
Protocol: Cones were collected from four mother tree crosses (full-sib families) at a time when the embryos were in the pre-dome and dome stage of development. Cones were transferred on blue ice and stored in plastic bags in a cold room at 0-4° C. until needed for dissections. Seeds were removed from cones and dissected on the same day. After the seeds were removed, they were placed into a beaker containing pre-sterilized water. Seeds were divided into aliquots of 60-80 seeds. Each aliquot was placed into a separate pre-sterilized tea strainer before undergoing the following procedure. First, seeds were agitated in 10% Liqui-nox (+2 droppers full Tween-20 per liter) for 10 minutes. After rinsing the seeds in deionized water (18 megaohms) for 30 minutes, the tea strainers were exposed to 20% (v/v) H2O2 for 10 minutes in a fume hood on a rotary shaker (175 rpm). The H2O2 was diluted just before use with sterile, deionized water. Following application of the H2O2, each strainer was placed into a separate beaker of sterile deionized water, covered with foil, and moved into the laminar flow hood. All subsequent steps were carried out in the laminar flow hood. Each tea strainer was rinsed by agitating 4-8 times in each of 5 separate portions of sterile deionized water. The contents of each tea strainer were then dumped into a large petri dish containing a sterile filter paper and a few millimeters of sterile water (to help keep seeds from drying). Seeds were placed into 60×15 mm sterile petri plates containing 0.2 ml sterile deionized water each. Those seeds not dissected after sterilization were thrown out at the end of the day. Dissections were done in clean laminar flow hoods. Clean gloves were worn throughout the preparatory steps and dissection. Sterile forceps and scalpels were used to carefully split the seed, remove the female gametophyte and nucellus, and to split the female gametophyte. The embryo suspensor was pulled out, but kept attached to (or touching) the female gametophyte. Embryo and gametophyte were placed unto initiation medium BM1 so that the embryo was visible through the petri dish lid. Initiation: Half of the embryos and gametophytes (Group 1) from each cross were placed on a semi-solid BM1 initiation medium (Table 2), the other half (Group 2) were placed on semi-solid BM1 initiation medium in which the maltose was replaced with sucrose (15000 mg/L). The explants were held in an environment at 22°-25 C with a 24 hour dark photoperiod for a time of 5-6 weeks. The length of time depends on the particular genotype being cultured. Embryonal suspensor masses (ESM) (White, translucent, and mucilaginous) were observed beginning 2-3 weeks after inoculation. […] Initiation is defined as growth of an embryonal suspensor mass from an explant. Overall, the percentage of ESMs initiated from explants was 27% for Group A and 18% for Group B. Initiation improved for each of the 4 crosses tested when explants were cultured on initiation medium containing maltose (Group A). Overall, the number of explants initiated increased by 51% for explants cultured on initiation medium containing maltose, compared to explants cultured on initiation medium containing sucrose.

Row | Compound | Initiation (#) (Establishment Frequencies) ([1]; Cross 1) | Initiation (%) (Establishment Frequencies) ([1]; Cross 1) | Initiation (#) (Establishment Frequencies) ([1]; Cross 2) | Initiation (%) (Establishment Frequencies) ([1]; Cross 2) | Initiation (#) (Establishment Frequencies) ([1]; Cross 3) | Initiation (%) (Establishment Frequencies) ([1]; Cross 3) | Initiation (#) (Establishment Frequencies) ([1]; Cross 4) | Initiation (%) (Establishment Frequencies) ([1]; Cross 4) | Initiation (#) (Establishment Frequencies) ([1]; Total of 4 crosses) | Initiation (%) (Establishment Frequencies); proportion of established ESMs ([1]; Total of 4 crosses) | Initiation (#) (Douglas-fir explants; Cross 1) | Initiation (%) (Douglas-fir explants; Cross 1) | Initiation (#) (Douglas-fir explants; Cross 2) | Initiation (%) (Douglas-fir explants; Cross 2) | Initiation (#) (Douglas-fir explants; Cross 3) | Initiation (%) (Douglas-fir explants; Cross 3) | Initiation (#) (Douglas-fir explants; Cross 4) | Initiation (%) (Douglas-fir explants; Cross 4) | Initiation (%) (Douglas-fir explants; Total of 4 crosses (overall)) | Initiation (#) (Douglas-fir explants; Total of 4 crosses) | further results
1 | OC[C@H]1O[C@H](O[C@H]2[C@H](O)[C@@H](O)C(O)O[C@@H]2CO)[C@H](O)[C@@H](O)[C@@H]1O (mixture of isomers) [Group A, maltose] | 36 # | 26 | 11 # | 10 | 20 # | 18 | 17 # | 15 | 84 # | 18 | 63 # | 46 | 30 # | 28 | 21 # | 19 | 13 # | 12 | 27 | 127 # | frequencies of established ESMs for each of the 4 crosses tested, compared with sucrose medium ([1]; each of 4 crosses): improved; increase in number of established ESMs compared to maintenance medium containing sucrose ([1]; overall, 4 crosses): 51%; Initiation for each of the 4 crosses tested, compared with sucrose medium (Douglas-fir explants; each of 4 crosses): improved; increase in number of explants initiated compared to initiation medium containing sucrose (Douglas-fir explants; overall, 4 crosses): 51%
2 | OC[C@H]1O[C@@](CO)(O[C@H]2O[C@H](CO)[C@@H](O)[C@H](O)[C@H]2O)[C@@H](O)[C@@H]1O [Group B, sucrose, reference compound] | 20 # | 14 | 6 # | 6 | 12 # | 11 | 13 # | 12 | 51 # | 11 | 42 # | 30 | 20 # | 19 | 14 # | 13 | 8 # | 7 | 18 | 84 # | –
